This note sets out measurements from patent US20040024024A1, “Aromatic sulfone hydroxamates and their use as protease inhibitors” (priority 2001, published 2004).

Holding throughout (format): biochemical
One assay has as its target T1, Human recombinant MMP-2 (Homo sapiens, UniProt P08253).
T1 construct: made in house; host or cells: MMP-2-transfected p2AHT2 cells
T1 sequence (P08253 110-660): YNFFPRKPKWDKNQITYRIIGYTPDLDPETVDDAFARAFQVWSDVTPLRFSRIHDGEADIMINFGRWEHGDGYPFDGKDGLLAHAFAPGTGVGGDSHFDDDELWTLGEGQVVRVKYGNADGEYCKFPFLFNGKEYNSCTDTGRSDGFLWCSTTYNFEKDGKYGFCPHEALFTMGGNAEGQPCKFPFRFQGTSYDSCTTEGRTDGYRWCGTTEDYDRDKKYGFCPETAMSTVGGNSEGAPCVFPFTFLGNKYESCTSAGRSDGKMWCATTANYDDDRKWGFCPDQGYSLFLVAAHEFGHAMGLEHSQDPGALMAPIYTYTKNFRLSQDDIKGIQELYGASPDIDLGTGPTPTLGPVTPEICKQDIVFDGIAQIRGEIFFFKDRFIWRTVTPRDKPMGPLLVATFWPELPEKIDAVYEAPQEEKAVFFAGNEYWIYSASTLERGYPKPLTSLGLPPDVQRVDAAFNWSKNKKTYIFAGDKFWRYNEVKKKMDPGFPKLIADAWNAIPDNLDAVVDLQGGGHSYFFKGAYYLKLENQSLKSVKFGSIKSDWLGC
The assay is described as follows: In vitro MMP inhibition, IC50 determination (fluorogenic substrate I). The settings on record: value outside parentheses. The essentials: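 IC50 was derived from the concentration-dependent fall in fluorescence (ex 328, em 415 nm) on Gly-Leu cleavage of 4 μM MCA/Dpa-quenched substrate I. Assays ran at room temperature in pH 7.5 Tris/NaCl/CaCl2/Brij buffer with MMP-2 activated by trypsin or APMA; inhibitors were diluted from 1% DMSO stocks.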

Assay [1] has as its target T2, Human recombinant MMP-14 (Homo sapiens, UniProt P50281).
T2 construct: The catalytic domain enzyme was expressed in E. coli inclusion bodies, solubilized in urea; made in house
Described as above. To be noted: value outside parentheses. The essentials:
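IC50 came from reduced fluorescence (ex 328 nm, em 415 nm) as inhibitor concentration rose, with 4 μM substrate I cleaved at Gly-Leu. Room-temperature incubation in pH 7.5 Tris buffer with 10 mM CaCl2; the E. coli-expressed, refolded MMP-14 catalytic domain was activated with trypsin or APMA.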

For assay [2], the target named is T2, Human recombinant MMP-14. The assay is described as follows: In vitro MMP inhibition, Ki determination (fluorogenic substrate II). To be noted: value in parentheses. An outline of the steps:
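Refolded E. coli-expressed MMP-14 catalytic domain, APMA- or trypsin-activated, incubated 1 h at room temperature with 4 μM fluorogenic substrate II in pH 7.5 Tris/NaCl/CaCl2 buffer; fluorescence read at 330/420 nm. Ki from Morrison-equation non-linear regression, substrate at or below Km, uncorrected for substrate.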

In the case of `O=C(NO)C1(S(=O)(=O)c2ccc(OCCCc3cccc(-c4ccoc4)c3)cc2)CCOCC1` [Example 637], the results for the IC50 at Human recombinant MMP-2 and at Human recombinant MMP-14 [1] were 0.138 µM and greater than 10 µM, respectively. Moreover, on Human recombinant MMP-14 [2], the Ki (usually the dissociation constant of the complex between target and ligand, obtained from inhibition or displacement) is greater than 10 µM.
